20 molecules from ChEMBL document CHEMBL3779849, “Exploration of the P3 region of PEXEL peptidomimetics leads to a potent inhibitor of the Plasmodium protease, plasmepsin V” (Bioorg Med Chem, 2016) can be followed below.

A short description of assay [1]: Inhibition of 2.5 ng recombinant FLAG-tagged Plasmodium vivax PMV expressed in High Five insect cells assessed as fluorogenic substrate cleavage using 12 uM DABCYL-RNKRTLAQKQ-E-EDANS as fluorogenic substrate after 120 mins by fluorescence plate reader method.
In a further assay the target is Plasmepsin V (Plasmodium falciparum (isolate 3D7), UniProt Q8I6Z5). Nature of the assay: Inhibition of Plasmodium falciparum PMV assessed as fluorogenic substrate cleavage using DABCYL-RNKRTLAQKQ-E-EDANS as fluorogenic substrate after 120 mins by fluorescence plate reader method.
Chain of Plasmepsin V (Q8I6Z5 whole entry): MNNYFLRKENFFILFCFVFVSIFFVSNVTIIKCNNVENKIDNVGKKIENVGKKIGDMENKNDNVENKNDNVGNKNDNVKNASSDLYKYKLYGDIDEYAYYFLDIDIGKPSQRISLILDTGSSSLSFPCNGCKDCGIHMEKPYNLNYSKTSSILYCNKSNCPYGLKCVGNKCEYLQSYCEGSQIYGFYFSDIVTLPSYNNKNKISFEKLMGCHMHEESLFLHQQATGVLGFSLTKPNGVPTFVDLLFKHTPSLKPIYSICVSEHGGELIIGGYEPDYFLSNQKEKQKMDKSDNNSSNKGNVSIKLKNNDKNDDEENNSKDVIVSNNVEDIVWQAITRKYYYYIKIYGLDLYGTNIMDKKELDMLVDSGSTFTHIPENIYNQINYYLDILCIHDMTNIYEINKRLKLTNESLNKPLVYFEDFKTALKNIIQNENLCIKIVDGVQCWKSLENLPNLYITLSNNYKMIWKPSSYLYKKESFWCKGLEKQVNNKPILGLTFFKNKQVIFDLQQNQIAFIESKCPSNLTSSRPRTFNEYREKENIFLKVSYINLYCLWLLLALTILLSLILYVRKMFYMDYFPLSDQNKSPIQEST
The nature of assay [2]: Inhibition of 1 ng recombinant FLAG-tagged Plasmodium vivax PMV expressed in High Five insect cells assessed as fluorogenic substrate cleavage using 7.5 uM DABCYL-RNKRTLAQKQ-E-EDANS as fluorogenic substrate after 120 mins by fluorescence plate reader method.
The next assay concerns HepG2. Nature of the assay: Cytotoxicity against human HepG2 cells assessed as cell viability after 48 hrs by Cell Titer-Glo assay. Conditions: HepG2, 48 h. In kind it is cell-based. In general terms: ATP-based viability assays read luminescence as a measure of living cells.
Assay [3] can be described thus: Ratio of EC50 for ring-stage Plasmodium falciparum 3D7 to IC50 for recombinant FLAG-tagged Plasmodium vivax PMV.
Assay [4] concerns Plasmodium falciparum. Nature of the assay: Antimalarial activity against Plasmodium falciparum 3D7 infected in human erythrocytes assessed as parasite viability after 72 hrs by flow cytometry. In kind it is functional, organism-based. As to conditions: 3D7, 72 h.
Assay [5] addresses Plasmepsin V (Plasmodium falciparum (isolate 3D7)) (UniProt Q8I6Z5). Nature of the assay: Inhibition of PMV in trophozoite stage of Plasmodium flaciparum 3D7 expressing PfEMP3-GFP infected in human erythrocytes assessed as PEXEL processing of PfEMP3 at 1 to 20 uM after 5 hrs by Western blot method. In kind it is cell-based. Conditions: Plasmodium falciparum 3D7. On the technique in general: In western blotting, separated proteins are transferred to a membrane and probed.

In assay [6] the test system is Plasmodium falciparum. As to the kind of experiment: Antimalarial activity against ring-stage Plasmodium falciparum 3D7 infected in human erythrocytes assessed as parasite viability after 72 hrs by LDH assay. It counts as functional, organism-based. Conditions: 3D7, 72 h.
The target of assay [7] is Plasmepsin V (Plasmodium falciparum (isolate 3D7)) (UniProt Q8I6Z5). As to the kind of experiment: Inhibition of PMV in trophozoite stage of Plasmodium flaciparum 3D7 expressing PfEMP3-GFP infected in human erythrocytes assessed as PEXEL processing of PfEMP3 at 20 uM after 5 hrs by Western blot method. It counts as cell-based. Conditions: Plasmodium falciparum 3D7.
Chain of Plasmepsin V (Plasmodium falciparum (isolate 3D7)) (Q8I6Z5 whole entry, looked up): as the sequence (Q8I6Z5 whole entry) above

Calls of active or inactive are those of the source. The rule behind the calls is not given here. Non-standard residues stand in square brackets, D forms with d. Residues, ends and D or L forms follow the SMILES beside them. *: point of attachment. Phe(4-guanidino) = N=C(N)Nc1ccc(C[C@H](N)C(=O)O)cc1; Arg(NO2) = N=C(NCCC[C@H](N)C(=O)O)N[N+](=O)[O-]; Phe(4-NH2) = Nc1ccc(C[C@H](N)C(=O)O)cc1; Sta = CC(C)C[C@H](N)[C@@H](O)CC(=O)O; Arg(Me) = CNC(=N)NCCC[C@H](N)C(=O)O; Cit = NC(=O)NCCC[C@H](N)C(=O)O; NHPhenethyl = c1ccc(CCN*)cc1; Orn = NCCC[C@H](N)C(=O)O; Cbz = O=C(OCc1ccccc1)*; Ms = CS(=O)(=O)*

One may read the IC50 as the midpoint of a concentration-inhibition curve. As to `CC(C)C[C@H](NC(=O)[C@@H](NC(=O)[C@H](CCCN(C)C(=N)N)NC(=O)OCc1ccccc1)C(C)C)[C@@H](O)CC(=O)NCCc1ccccc1`, in assay [1], the IC50 was > 50 µM.
As a reminder, the EC50 is the midpoint of the concentration-response curve. `CC(C)C[C@H](NC(=O)[C@@H](NC(=O)[C@H](CCONC(=N)N)NC(=O)OCc1ccccc1)C(C)C)[C@@H](O)CC(=O)NCCc1ccccc1`: the IC50 amounted to 0.0008 µM at Plasmepsin V, 0.0016 µM in assay [2] and 0.01 µM in assay [1]. In addition, the EC50 with HepG2 was > 50 µM; with Plasmodium falciparum [4], 0.4 µM; in the assay with Plasmodium falciparum [6], 0.229 µM. The Ratio in assay [3] is 25. Besides, the inhibition result in assay [5] was “Active”.
As to `CC(C)C[C@H](NC(=O)[C@@H](NC(=O)[C@H](CCCNC(=N)N[N+](=O)[O-])NC(=O)OCc1ccccc1)C(C)C)[C@@H](O)CC(=O)NCCc1ccccc1` (Cbz-[Arg(NO2)]-Val-[Sta]-NHPhenethyl), the half-maximal inhibitory concentration (IC50) in [1] is > 50 µM.
Still for that read-out and setting: the result for `CC(=O)NCCC[C@H](NC(=O)OCc1ccccc1)C(=O)N[C@H](C(=O)N[C@@H](CC(C)C)[C@@H](O)CC(=O)NCCc1ccccc1)C(C)C` (Cbz-[Orn](Ac)-Val-[Sta]-NHPhenethyl) reads > 50 µM.
`CCN(CC)CCCC(C)Nc1ccnc2cc(Cl)ccc12` (stereo not given) [CHLOROQUINE]: in the assay with Plasmodium falciparum [6], the EC50 was 0.012 µM.
With `CC(C)C[C@H](NC(=O)[C@@H](NC(=O)[C@H](CCCNC(=N)NC#N)NC(=O)OCc1ccccc1)C(C)C)[C@@H](O)CC(=O)NCCc1ccccc1`, the IC50 in assay [1] was > 50 µM.
For `CC(C)C[C@H](NC(=O)[C@@H](NC(=O)[C@H](CCONC(=N)N)NC(=O)OCc1ccccc1)C(C)C)[C@H](O)CC(=O)NCCc1ccccc1`, the EC50 with HepG2 was > 50 µM; in the assay with Plasmodium falciparum [6] it was 5.65 µM. For the same molecule, the half-inhibitory concentration (IC50) in assay [1] is 2.74 µM. Further, in assay [7], the inhibition entry is “inactive”.
As to `CC(C)C[C@H](NC(=O)[C@@H](NC(=O)[C@H](CCCNC(C)C)NC(=O)OCc1ccccc1)C(C)C)[C@@H](O)CC(=O)NCCc1ccccc1`, the 50% inhibitory concentration (IC50) in assay [1] is > 50 µM.
Take `CC(C)C[C@H](NC(=O)[C@@H](NC(=O)[C@H](CCCNC(=N)N)NC(=O)OCc1ccccc1)C(C)C)[C@@H](O)CC(=O)NCCc1ccccc1` (Cbz-Arg-Val-[Sta]-NHPhenethyl): the 50% effective concentration (EC50) in the assay with HepG2 was > 50 µM; with Plasmodium falciparum [6] it was 3.26 µM. The IC50 in [1] worked out at 0.128 µM. The inhibition entry in [7] was “Active”.
As to `CC(C)C[C@H](NC(=O)[C@@H](NC(=O)[C@H](Cc1ccc(NC(=N)N)cc1)NC(=O)OCc1ccccc1)C(C)C)[C@@H](O)CC(=O)NCCc1ccccc1` (Cbz-[Phe(4-guanidino)]-Val-[Sta]-NHPhenethyl), in assay [1], the IC50 was > 50 µM.
On to `CONC(=N)NCCC[C@H](NC(=O)OCc1ccccc1)C(=O)N[C@H](C(=O)N[C@@H](CC(C)C)[C@@H](O)CC(=O)NCCc1ccccc1)C(C)C`, for which the values for the EC50 with HepG2 and in the assay on Plasmodium falciparum [6] were > 50 µM and 1.97 µM, respectively. Besides, the 50% inhibitory concentration (IC50) in assay [1] came to 18 µM.
Regarding `CC(C)C[C@H](NC(=O)[C@@H](NC(=O)[C@H](CCCNC(N)=O)NC(=O)OCc1ccccc1)C(C)C)[C@@H](O)CC(=O)NCCc1ccccc1` (Cbz-[Cit]-Val-[Sta]-NHPhenethyl), the 50% inhibitory concentration (IC50) in [1] was > 50 µM.
Turning to `CNC(=N)NCCC[C@H](NC(=O)OCc1ccccc1)C(=O)N[C@H](C(=O)N[C@@H](CC(C)C)[C@@H](O)CC(=O)NCCc1ccccc1)C(C)C` (Cbz-[Arg(Me)]-Val-[Sta]-NHPhenethyl), the EC50 was > 50 µM in the assay with HepG2 and 12.7 µM with Plasmodium falciparum [6]. For the same molecule, the half-maximal inhibitory concentration (IC50) in assay [1] stood at 37.7 µM.
`CC(=N)NCCC[C@H](NC(=O)OCc1ccccc1)C(=O)N[C@H](C(=O)N[C@@H](CC(C)C)[C@@H](O)CC(=O)NCCc1ccccc1)C(C)C`: the EC50 is > 50 µM with HepG2 and 21.4 µM with Plasmodium falciparum [6]. Moreover, the half-inhibitory concentration (IC50) in [1] was 40.3 µM. Also, the inhibition result in assay [7] was “inactive”.
As to `CC(C)C[C@H](NC(=O)[C@@H](NC(=O)[C@H](CCCNC(=N)NO)NC(=O)OCc1ccccc1)C(C)C)[C@@H](O)CC(=O)NCCc1ccccc1`, the EC50 with HepG2 was > 50 µM; with Plasmodium falciparum [6], 3.97 µM. Besides, in [1], the IC50 was determined as 3.88 µM. For the same molecule, the inhibition result in assay [7] is “inactive”.
For the molecule `CC(C)C[C@H](NC(=O)[C@@H](NC(=O)[C@H](CCCNS(C)(=O)=O)NC(=O)OCc1ccccc1)C(C)C)[C@@H](O)CC(=O)NCCc1ccccc1` (Cbz-[Orn](Ms)-Val-[Sta]-NHPhenethyl), the concentration for half-maximal inhibition (IC50) in assay [1] is > 50 µM.
The same measure, in the same setting: next, `CC(C)C[C@H](NC(=O)[C@@H](NC(=O)[C@H](Cc1cccc(N)c1)NC(=O)OCc1ccccc1)C(C)C)[C@@H](O)CC(=O)NCCc1ccccc1`: > 50 µM; `CC(C)C[C@H](NC(=O)[C@@H](NC(=O)[C@H](Cc1cccc(NC(=N)N)c1)NC(=O)OCc1ccccc1)C(C)C)[C@@H](O)CC(=O)NCCc1ccccc1`: > 50 µM.
Take `CC(C)C[C@H](NC(=O)[C@@H](NC(=O)[C@H](CCC(=O)NC(=N)N)NC(=O)OCc1ccccc1)C(C)C)[C@@H](O)CC(=O)NCCc1ccccc1`: the values for the EC50 in the assay with HepG2 and in the assay on Plasmodium falciparum [6] were > 50 µM and 3.33 µM, respectively. The IC50 in assay [1] turned out to be 41.6 µM.
For the molecule `CC(C)C[C@H](NC(=O)[C@@H](NC(=O)[C@H](Cc1ccc(N)cc1)NC(=O)OCc1ccccc1)C(C)C)[C@@H](O)CC(=O)NCCc1ccccc1` (Cbz-[Phe(4-NH2)]-Val-[Sta]-NHPhenethyl), the IC50 in [1] is > 50 µM.
